Experiment [1] has as its system H3.X/Y. The experiment can be described thus: Immunoblot of DUX4 target H3.X/Y proteins. The note with it: MB135 cells, continuous or pulsed protocol. Type of experiment: cell-based, human. As to the method:
Protein samples were harvested in RIPA buffer [150 mM NaCl, 1% NP-40, 0.5% Na-deocycholate, 1% SDS, 25 mM Tris-HCl pH7.4] supplemented with protease and phosphatase inhibitor tablets (Pierce), followed by sonication in Diagenode Bioruptor. Lysate was cleared by centrifugation at 16000×g and quantified using a Pierce BCA assay (Thermo Fisher Scientific). Samples were run on NuPAGE precast polyacrylamide gels (Invitrogen) and transferred to PVDF membrane. Membranes were blocked in PBS containing 0.1% Tween-20 and 5% non-fat dry milk before overnight incubation at 4° C. with primary antibodies (see resource table for a list of antibodies used in this study). Membranes were incubated with horseradish peroxidase-conjugated secondary antibodies for 1 hour at room temperature and SuperSignal chemiluminescent substrate (Thermo Scientific) was used for detection on film with a Mini-medical 90 processor. Membranes were stripped with Restore Western Blot Stripping Buffer (Pierce).

For experiment [2], the system named is Pol-II. The experiment can be described thus: CUT&Tag of Pol-II occupancy. As to conditions: MB135-iDUX4-CTD cells, IFNG ± doxycycline. Format: cell-based, human. How it is done: CUT&Tag was performed as previously described (Kaya-Okur et al., 2019) with the following modifications: MB135-iDUX4-CTD myoblasts were plated and allowed to grow to 70-80% confluence. Cells were left untreated, treated with 200 ng/ml IFNG for 16 hr, or pre-treated with 1 μg/mL doxycycline for 4 hr then had IFNG added directly to cell media for an additional 16 hr. Fresh cells were harvested and washed in PBS, crosslinked with 0.1% formaldehyde for 90 seconds, then counted and 1.25e6 cells were aliquoted per reaction tube. Drosophila S2 cells were spiked-in at a genomic ratio of 1:10. Nuclei were prepared from cells in Buffer NE1 (20 mM HEPES-KOH PH7.9, 10 mM KCl, 0.1% Triton X-100, 20% glycerol, 0.5 mM spermidine, Pierce Protease Inhibitors EDTA-free [PIA32955]) on ice for 10 min and then bound to concanavalin A-coated beads for 10 min. […]
CUT&Tag data were aligned to the GRCh38 patch 13 human genome e following the Benchtop CUT&Tag v3 protocol (Kaya-Okur et al., 2019). Subsequent to alignment we calculated 1× genome coverage normalization with read centering and read extension using deepTools' bamCoverage (Ramírez, 2016) then mapped the resulting coverage tracks to regions of interest using bedtools' map function (Aaron R. Quinlan, 2010). […]

Experiment [3] has as its system in vitro translated STAT1. The experiment can be described thus: In vitro translation and anti-FLAG immunoprecipitation. The note with it: rabbit reticulocyte lysate proteins, ± JAK1 kinase; listed as DUX4-CTD. Format: binding. How it is done: In vitro translated proteins were prepared using the TnT Quick Coupled Transcription Translation System (Promega, L2080) for the SP6 promoter on the pCS2-3×MYC-STAT1, pCS2-3×MYC-STAT1-S727E, pCS2-3×FLAG-DUX4aa154-424, and pCS2-3×FLAG-DUXB plasmids. To phosphorylate the 3×MYC-STAT1 and 3×MYC-STAT1-S727E proteins at Y701, 20 μL of the TnT reaction was mixed with 8 μL of 5× Kinase Buffer A (ThermoFisher, Cat #PV3189), 4 uL 10 mM ATP (ThermoFisher, Cat #PV3227), 0.4 ug recombinant JAK1 kinase (ThermoFisher, Cat #PV4774), and then nuclease-free ddH2O to a final volume of 40 μL and incubated for 1 hour at 30° C. The same procedure was used for treatment of 3×FLAG-DUX4-CTD with JAK1 kinase. For IPs, the in vitro translated proteins were mixed and incubated for 15 minutes in a 37° C. water bath. 0.3 mL of ice-cold in vitro IP buffer [20 mM Tris-HCl pH 7.5, 137 mM NaCl, 1 mM EDTA, 0.1% Tween20, 5% glycerol, adjusted to pH 7.4] was added to each sample and then 50 μL of Dynabeads Protein G bound to mouse IgG1 anti-FLAG [M2] (F3165) and incubated for 3 hours at 4° C. with gentle rotation. After immunoprecipitation of FLAG-tagged constructs, each sample was washed 3 times with 1 mL of ice-cold in vitro IP buffer in a 4° C. room. […]

“Also recorded” adds a separate entry of the source.

As to “DUX4: human DUX4 protein SEQ ID NO:3 expressed from doxycycline inducible codon altered transgene SEQ ID NO:2”, the entries for the “induction of DUX4 target H3.X/Y proteins” value in experiment [1] and in experiment [1] (listed as full-length DUX4) were “activates a DUX4-regulated gene H3.X/Y in both protocols” and “are induced by the full-length DUX4”, respectively.

In the case of “longCTD: 3×FLAG tag and nls in frame with carboxyterminal 271 amino acids of DUX4 (aa154-424), SEQ ID NOS: 8-9”, the “Pol-II recruitment to ISGs” value in experiment [2] is recorded as “blocked Pol-II recruitment to ISGs without affecting occupancy at other genes; also recorded: blocks Pol-II recruitment”. The “interaction with in vitro translated STAT1” value in experiment [3] is given as “did not interact with in vitro translated STAT1; also recorded: does not co-immunoprecipitate with in vitro translated/phosphorylated STAT1”.
